Assay: Clinical visual evaluation of skin lesion, atopic dermatitis model
Type: in vivo, NC/Nga mice
Experimental: In order to induce atopic dermatitis, 100 mg of mite antigen cream was applied on the ear, occipital region and back of NC/Nga mouse (9 to 11 weeks old), except for the negative control group, 3 times a week, 2 hours after the application of 4% SDS solution. Three weeks later, it was observed whether atopic dermatitis was induced by checking skin rash, erythema, cornification, or the like. Atopic dermatitis was induced in all groups except for the negative control group. For drug treatment and evaluation of therapeutic effect, mice were grouped into 12 groups, 6 oral administration groups and 6 topical application groups (each consisting of negative control group, positive control group, macelignan low conc. group, macelignan high conc. group, nutmeg extract low conc. group, and nutmeg extract high conc. group), with n=5 per cage. […] Transepidermal water loss (TEWL), skin hydration and erythema index were measured one day before the end of the test. […]
Prior to the end of the experiment, the lesions of the mice were photographed. The change of the skin lesion was evaluated visually.

COc1cc(C[C@H](C)[C@H](C)Cc2ccc3c(c2)OCO3)ccc1O (single isomer, unassigned) [macelignan]
clinical visual evaluation of skin lesion (oral administration 50 and 150 mg/kg): remarkable decrease in erythema/hemorrhage, dryness/scarring, edema, excoriation/erosion and lichenification and improvement in atopic dermatitis | clinical visual evaluation of skin lesion (topical application 20 and 60 mg/kg): remarkable decrease in erythema/hemorrhage, dryness/scarring, edema, excoriation/erosion and lichenification and improvement in atopic dermatitis

From patent US8853264B2, “Use of lignan compounds for treating or preventing inflammatory disease” (Newtree Industry Co., Ltd., priority 2005, dated 2014)
